# Laboratory results taken from paper PMC5218480 (PLoS ONE, 2017).
# Tested on: MV-4-11 cells
# Assay: Gene expression microarray analysis (Affymetrix PrimeView) and GSEA
# Assay type: cell-based, human
# Design: RFU PODN (11730768_x_at) / Fold change /veh PODN (11730768_x_at) / RFU LINC00158 (11744669_a_at) / Fold change /veh LINC00158 (11744669_a_at) / RFU DUSP10 (11751237_a_at) / Fold change /veh DUSP10 (11751237_a_at) / RFU ID3 (11757404_x_at) / Fold change /veh ID3 (11757404_x_at) / RFU PLEKHG5 (11737974_s_at) / Fold change /veh PLEKHG5 (11737974_s_at) / RFU LRRC4B (11730491_at) / Fold change /veh LRRC4B (11730491_at) / RFU GIMAP4 (11747438_a_at) / Fold change /veh GIMAP4 (11747438_a_at) / RFU KRT8 (11758183_x_at) / Fold change /veh KRT8 (11758183_x_at) / RFU CNN1 (11734310_a_at) / Fold change /veh CNN1 (11734310_a_at) / RFU VPS37D (11726825_at) / Fold change /veh VPS37D (11726825_at) / RFU C10orf10 (11716522_x_at) / Fold change /veh C10orf10 (11716522_x_at) / RFU KIR2DL2 /// KIR2DL4 /// KIR2DL5A /// KIR2DL5B /// KIR2DS1 /// KIR2DS2 /// KIR2DS3 /// KIR2DS4 /// KIR3DL3 /// KIR3DL3 /// KIR3DS1 (11738374_at) / Fold change /veh KIR2DL2 /// KIR2DL4 /// KIR2DL5A /// KIR2DL5B /// KIR2DS1 /// KIR2DS2 /// KIR2DS3 /// KIR2DS4 /// KIR3DL3 /// KIR3DL3 /// KIR3DS1 (11738374_at) / RFU C1QL1 (11718748_at) / Fold change /veh C1QL1 (11718748_at) / RFU TMPRSS4 (11747572_a_at) / Fold change /veh TMPRSS4 (11747572_a_at) / RFU HAMP (11756126_x_at) / Fold change /veh HAMP (11756126_x_at) / RFU RNFT2 (11725882_a_at) / Fold change /veh RNFT2 (11725882_a_at) / RFU NR4A2 (11747474_a_at) / Fold change /veh NR4A2 (11747474_a_at) / RFU ABCC12 (11746883_a_at) / Fold change /veh ABCC12 (11746883_a_at) / RFU TMEM136 (11760407_x_at) / Fold change /veh TMEM136 (11760407_x_at) / RFU CLDN22 /// WWC2 (11732394_at) / Fold change /veh CLDN22 /// WWC2 (11732394_at) / RFU HLA-DPB1 (11760878_x_at) / Fold change /veh HLA-DPB1 (11760878_x_at) / RFU SPINT1 (11716480_a_at) / Fold change /veh SPINT1 (11716480_a_at) / RFU GAP43 (11754022_s_at) / Fold change /veh GAP43 (11754022_s_at) / RFU A4GNT (11735810_at) / Fold change /veh A4GNT (11735810_at) / RFU PRB3 (11715151_x_at) / Fold change /veh PRB3 (11715151_x_at) / RFU TUBB4B (11761932_at) / Fold change /veh TUBB4B (11761932_at) / RFU CAPN14 (11732068_a_at) / Fold change /veh CAPN14 (11732068_a_at) / RFU TMCC2 (11721928_a_at) / Fold change /veh TMCC2 (11721928_a_at) / RFU IRGQ (11745062_a_at) / Fold change /veh IRGQ (11745062_a_at) / RFU FAM174B (11720279_a_at) / Fold change /veh FAM174B (11720279_a_at) / RFU TMPRSS4 (11748680_a_at) / Fold change /veh TMPRSS4 (11748680_a_at) / RFU FAM212B (11763350_a_at) / Fold change /veh FAM212B (11763350_a_at) / RFU PLEKHG5 (11743358_a_at) / Fold change /veh PLEKHG5 (11743358_a_at) / RFU ZSCAN30 (11745921_a_at) / Fold change /veh ZSCAN30 (11745921_a_at) / RFU CMKLR1 (11741424_a_at) / Fold change /veh CMKLR1 (11741424_a_at) / RFU LOC101060620 /// MAPK8IP1 (11723275_at) / Fold change /veh LOC101060620 /// MAPK8IP1 (11723275_at) / RFU SPTSSB (11747773_x_at) / Fold change /veh SPTSSB (11747773_x_at) / RFU PRSS12 (11739890_at) / Fold change /veh PRSS12 (11739890_at) / RFU BIN1 (11741810_x_at) / Fold change /veh BIN1 (11741810_x_at) / RFU WNT11 (11732464_a_at) / Fold change /veh WNT11 (11732464_a_at) / RFU C10orf10 (11716521_a_at) / Fold change /veh C10orf10 (11716521_a_at) / RFU C5orf56 (11738089_at) / Fold change /veh C5orf56 (11738089_at) / RFU CYB561 (11721691_x_at) / Fold change /veh CYB561 (11721691_x_at) / RFU ANKRD19P (11752326_a_at) / Fold change /veh ANKRD19P (11752326_a_at) / RFU OR2T12 /// OR2T33 /// OR2T8 (11738714_s_at) / Fold change /veh OR2T12 /// OR2T33 /// OR2T8 (11738714_s_at) / RFU VCAN (11748164_a_at) / Fold change /veh VCAN (11748164_a_at) / RFU JSRP1 (11732532_at) / Fold change /veh JSRP1 (11732532_at) / RFU KRTAP10-11 (11738290_x_at) / Fold change /veh KRTAP10-11 (11738290_x_at) / RFU MYO3A (11730013_a_at) / Fold change /veh MYO3A (11730013_a_at) / RFU EBF3 (11725865_a_at) / Fold change /veh EBF3 (11725865_a_at) / RFU CAMK2N1 (11719241_x_at) / Fold change /veh CAMK2N1 (11719241_x_at) / RFU C5orf56 (11738088_a_at) / Fold change /veh C5orf56 (11738088_a_at) / RFU OLFML3 (11715873_a_at) / Fold change /veh OLFML3 (11715873_a_at) / RFU LOC100653217 /// NTM (11731650_a_at) / Fold change /veh LOC100653217 /// NTM (11731650_a_at) / RFU MAPK11 (11762145_a_at) / Fold change /veh MAPK11 (11762145_a_at) / RFU FIZ1 (11724087_x_at) / Fold change /veh FIZ1 (11724087_x_at) / RFU OASL (11726364_x_at) / Fold change /veh OASL (11726364_x_at) / RFU SOX15 (11748057_x_at) / Fold change /veh SOX15 (11748057_x_at) / RFU CD79A (11719716_a_at) / Fold change /veh CD79A (11719716_a_at) / RFU HIST1H1D (11736915_at) / Fold change /veh HIST1H1D (11736915_at) / RFU CASKIN2 (11723855_a_at) / Fold change /veh CASKIN2 (11723855_a_at) / RFU LOC730098 (11760151_x_at) / Fold change /veh LOC730098 (11760151_x_at) / RFU OR4N2 (11742367_at) / Fold change /veh OR4N2 (11742367_at) / RFU PRRT2 (11749266_a_at) / Fold change /veh PRRT2 (11749266_a_at) / RFU SNX32 (11753110_a_at) / Fold change /veh SNX32 (11753110_a_at) / RFU CDHR5 (11726645_a_at) / Fold change /veh CDHR5 (11726645_a_at) / RFU RCAN1 (11760418_a_at) / Fold change /veh RCAN1 (11760418_a_at) / RFU FAM167A (11723789_a_at) / Fold change /veh FAM167A (11723789_a_at) / RFU FAM26E (11764081_at) / Fold change /veh FAM26E (11764081_at) / RFU ISYNA1 (11749810_s_at) / Fold change /veh ISYNA1 (11749810_s_at) / RFU ACY1 (11761880_at) / Fold change /veh ACY1 (11761880_at) / RFU 11764098_at / Fold change /veh 11764098_at / RFU SAMD14 (11745864_x_at) / Fold change /veh SAMD14 (11745864_x_at) / RFU NPB (11741838_a_at) / Fold change /veh NPB (11741838_a_at) / RFU TMPRSS6 (11731388_a_at) / Fold change /veh TMPRSS6 (11731388_a_at) / RFU KRTAP10-2 (11738614_at) / Fold change /veh KRTAP10-2 (11738614_at) / RFU ARHGAP8 /// PRR5-ARHGAP8 (11727945_x_at) / Fold change /veh ARHGAP8 /// PRR5-ARHGAP8 (11727945_x_at) / RFU KRTAP5-7 /// NADSYN1 (11734609_at) / Fold change /veh KRTAP5-7 /// NADSYN1 (11734609_at) / RFU RASL12 (11751679_a_at) / Fold change /veh RASL12 (11751679_a_at) / RFU CDKN2B (11736163_a_at) / Fold change /veh CDKN2B (11736163_a_at) / RFU PRF1 (11729649_at) / Fold change /veh PRF1 (11729649_at) / RFU, ZNF638 /// ZNF638-IT1 / Fold change vs veh, ZNF638 /// ZNF638-IT1 / RFU, PANK3 / Fold change vs veh, PANK3 / RFU, SH3YL1 / Fold change vs veh, SH3YL1 / RFU, ZEB2 / Fold change vs veh, ZEB2 / RFU, NRIP1 / Fold change vs veh, NRIP1 / RFU, PTTG1IP / Fold change vs veh, PTTG1IP / RFU, CAPN2 / Fold change vs veh, CAPN2 / RFU, MED14 / Fold change vs veh, MED14 / RFU, SNORA58 / Fold change vs veh, SNORA58 / RFU, C1orf63 / Fold change vs veh, C1orf63 / RFU, LRRFIP1 / Fold change vs veh, LRRFIP1 / RFU, NDUFAF7 / Fold change vs veh, NDUFAF7 / RFU, SLC12A2 / Fold change vs veh, SLC12A2 / RFU, IBTK / Fold change vs veh, IBTK / RFU, ESF1 / Fold change vs veh, ESF1 / Fold change vs veh, TMEM50B / RFU, TAOK1 / Fold change vs veh, TAOK1 / RFU, ACBD3 / Fold change vs veh, ACBD3 / RFU, TMA16 / Fold change vs veh, TMA16 / RFU, RWDD3 / Fold change vs veh, RWDD3 / RFU, BCAT1 / Fold change vs veh, BCAT1 / RFU, EDEM3 / Fold change vs veh, EDEM3 / RFU, TMEM33 / Fold change vs veh, TMEM33 / RFU, WDR75 / Fold change vs veh, WDR75 / RFU, AHCTF1 / Fold change vs veh, AHCTF1 / RFU, TFRC / Fold change vs veh, TFRC / RFU, ZDHHC17 / Fold change vs veh, ZDHHC17 / RFU, NOM1 / Fold change vs veh, NOM1 / RFU, ARL8B / Fold change vs veh, ARL8B / RFU, ZBTB11 / Fold change vs veh, ZBTB11 / RFU, TAMM41 / Fold change vs veh, TAMM41 / RFU, KIAA1704 /// LOC100996395 / Fold change vs veh, KIAA1704 /// LOC100996395 / RFU, ING1 / Fold change vs veh, ING1 / RFU, TRMT61B / Fold change vs veh, TRMT61B / RFU, FUBP3 / Fold change vs veh, FUBP3 / RFU, TP53 / Fold change vs veh, TP53 / RFU, TNKS2 / Fold change vs veh, TNKS2 / RFU, ZFP14 / Fold change vs veh, ZFP14 / RFU, ACTR2 / Fold change vs veh, ACTR2 / RFU, PPP3R1 / Fold change vs veh, PPP3R1 / RFU, PIK3R1 / Fold change vs veh, PIK3R1 / RFU, HNRNPA1 / Fold change vs veh, HNRNPA1 / RFU, RNF170 / Fold change vs veh, RNF170 / RFU, ZNF28 / Fold change vs veh, ZNF28 / RFU, RNGTT / Fold change vs veh, RNGTT / RFU, OGT / Fold change vs veh, OGT / RFU, BRD1 / Fold change vs veh, BRD1 / RFU, MARS / Fold change vs veh, MARS / RFU, ZNF655 / Fold change vs veh, ZNF655 / RFU, FAHD1 / Fold change vs veh, FAHD1 / RFU, BDP1 / Fold change vs veh, BDP1 / RFU, LRRCC1 / Fold change vs veh, LRRCC1 / RFU, ARID1A / Fold change vs veh, ARID1A / RFU, ZNF146 / Fold change vs veh, ZNF146 / RFU, ZNF330 / Fold change vs veh, ZNF330 / RFU, GPN3 / Fold change vs veh, GPN3 / RFU, C9orf123 / Fold change vs veh, C9orf123 / RFU, N4BP2L2 / Fold change vs veh, N4BP2L2 / RFU, ARFIP1 / Fold change vs veh, ARFIP1 / RFU, FAM179B / Fold change vs veh, FAM179B / RFU, BCL10 / Fold change vs veh, BCL10 / RFU, UHRF1BP1L / Fold change vs veh, UHRF1BP1L / RFU, BET1 / Fold change vs veh, BET1 / RFU, CNOT2 / Fold change vs veh, CNOT2 / RFU, ZNF268 / Fold change vs veh, ZNF268 / Fold change vs veh, ZNF507 / RFU, DGCR2 / Fold change vs veh, DGCR2 / RFU, WDSUB1 / Fold change vs veh, WDSUB1 / Fold change vs veh, HSP90B1 /// MIR3652 / RFU, ADSS / Fold change vs veh, ADSS / RFU, GK / Fold change vs veh, GK / RFU, ZNF148 / Fold change vs veh, ZNF148 / RFU, TAF9 / Fold change vs veh, TAF9 / RFU, SLC1A5 / Fold change vs veh, SLC1A5 / RFU, SLMO2 / Fold change vs veh, SLMO2 / RFU, ABCC4 / Fold change vs veh, ABCC4 / RFU, LOC101060439 /// RAP1B / Fold change vs veh, LOC101060439 /// RAP1B / RFU, RFX7 / Fold change vs veh, RFX7 / RFU, GTPBP10 / Fold change vs veh, GTPBP10 / RFU, CNEP1R1 / Fold change vs veh, CNEP1R1 / RFU, BIVM-ERCC5 /// ERCC5 / Fold change vs veh, BIVM-ERCC5 /// ERCC5 / RFU, ILF3 / Fold change vs veh, ILF3 / RFU 11762660_at / Fold change /veh 11762660_at / RFU VCAN (11757783_s_at) / Fold change /veh VCAN (11757783_s_at) / RFU DDX43 (11728927_at) / Fold change /veh DDX43 (11728927_at) / RFU KRT8 (11758188_x_at) / Fold change /veh KRT8 (11758188_x_at) / RFU NKD1 (11759106_at) / Fold change /veh NKD1 (11759106_at) / RFU SRD5A1 (11742802_a_at) / Fold change /veh SRD5A1 (11742802_a_at) / RFU TPSAB1 /// TPSB2 (11721975_s_at) / Fold change /veh TPSAB1 /// TPSB2 (11721975_s_at) / RFU GSTM3 (11746129_a_at) / Fold change /veh GSTM3 (11746129_a_at) / RFU IL23R (11737362_x_at) / Fold change /veh IL23R (11737362_x_at) / RFU TMEM51 (11727254_a_at) / Fold change /veh TMEM51 (11727254_a_at) / RFU PIWIL2 (11732686_x_at) / Fold change /veh PIWIL2 (11732686_x_at) / RFU ORM1 (11744905_x_at) / Fold change /veh ORM1 (11744905_x_at) / RFU CCDC152 (11743942_at) / Fold change /veh CCDC152 (11743942_at) / RFU ECM1 (11717891_a_at) / Fold change /veh ECM1 (11717891_a_at) / RFU IL23R (11748794_a_at) / Fold change /veh IL23R (11748794_a_at) / RFU TNFAIP8L3 (11732012_x_at) / Fold change /veh TNFAIP8L3 (11732012_x_at) / RFU MBOAT4 (11741988_at) / Fold change /veh MBOAT4 (11741988_at) / RFU 11764193_at / Fold change /veh 11764193_at / RFU TMEM53 (11763286_at) / Fold change /veh TMEM53 (11763286_at) / RFU MAGEB2 (11727129_at) / Fold change /veh MAGEB2 (11727129_at) / RFU TMEM200A (11744735_a_at) / Fold change /veh TMEM200A (11744735_a_at) / RFU CCDC152 (11751479_a_at) / Fold change /veh CCDC152 (11751479_a_at) / RFU FAM211A (11726209_a_at) / Fold change /veh FAM211A (11726209_a_at) / RFU RGS16 (11746705_a_at) / Fold change /veh RGS16 (11746705_a_at) / RFU VCAN (11755009_s_at) / Fold change /veh VCAN (11755009_s_at) / RFU RHOB (11743442_s_at) / Fold change /veh RHOB (11743442_s_at) / RFU RGS16 (11720943_a_at) / Fold change /veh RGS16 (11720943_a_at) / RFU RGS16 (11720944_at) / Fold change /veh RGS16 (11720944_at) / RFU, VPS4B / Fold change vs veh, VPS4B / RFU, CREB1 / Fold change vs veh, CREB1 / RFU, DNAJC13 / Fold change vs veh, DNAJC13 / RFU, GNAQ / Fold change vs veh, GNAQ / RFU, CDK5R1 / Fold change vs veh, CDK5R1 / RFU, ZRANB3 / Fold change vs veh, ZRANB3 / RFU, CUL4A / Fold change vs veh, CUL4A / RFU, CCNY / Fold change vs veh, CCNY / RFU, UFL1 / Fold change vs veh, UFL1 / RFU, COG3 / Fold change vs veh, COG3 / RFU, DIAPH2 / Fold change vs veh, DIAPH2 / RFU, SKA2 / Fold change vs veh, SKA2 / RFU, AFF3 / Fold change vs veh, AFF3 / RFU, LMF1 / Fold change vs veh, LMF1 / RFU, IPO11 / Fold change vs veh, IPO11 / RFU, DFFB / Fold change vs veh, DFFB / RFU, FOXP1 / Fold change vs veh, FOXP1 / RFU, CARD8 / Fold change vs veh, CARD8 / RFU, STRN3 / Fold change vs veh, STRN3 / RFU, ADK / Fold change vs veh, ADK / RFU, RASSF2 / Fold change vs veh, RASSF2 / RFU, WIPF1 / Fold change vs veh, WIPF1 / RFU, LARP1B / Fold change vs veh, LARP1B / RFU, RASA1 / Fold change vs veh, RASA1 / RFU, RB1 / Fold change vs veh, RB1 / RFU, PPFIA1 / Fold change vs veh, PPFIA1 / RFU, MAT2A / Fold change vs veh, MAT2A / RFU, CCT5 / Fold change vs veh, CCT5 / RFU, WDR92 / Fold change vs veh, WDR92 / RFU, CUX1 / Fold change vs veh, CUX1 / RFU, TTC7A / Fold change vs veh, TTC7A / RFU, TMEM135 / Fold change vs veh, TMEM135 / RFU, DEPTOR / Fold change vs veh, DEPTOR / RFU, CPM / Fold change vs veh, CPM / RFU, DNAJB6 / Fold change vs veh, DNAJB6 / RFU, CACNA2D3 / Fold change vs veh, CACNA2D3 / RFU, DTX4 / Fold change vs veh, DTX4 / RFU, TFCP2 / Fold change vs veh, TFCP2 / RFU, GMCL1 /// GMCL1P1 / Fold change vs veh, GMCL1 /// GMCL1P1 / RFU, AEBP2 / Fold change vs veh, AEBP2 / RFU, SNHG1 /// SNORD22 /// SNORD25 /// SNORD26 /// SNORD27 /// SNORD28 /// SNORD29 /// SNORD31 / Fold change vs veh, SNHG1 /// SNORD22 /// SNORD25 /// SNORD26 /// SNORD27 /// SNORD28 /// SNORD29 /// SNORD31 / Fold change (Aza/veh), C12orf56 (ProbeSet 11735607_a_at) / Fold change (ACY-1035/veh), C12orf56 (ProbeSet 11735607_a_at) / Fold change (Aza/veh), FGFR1OP (ProbeSet 11751329_s_at) / Fold change (ACY-1035/veh), FGFR1OP (ProbeSet 11751329_s_at) / Fold change (Aza/veh), VPS36 (ProbeSet 11739960_a_at) / Fold change (ACY-1035/veh), VPS36 (ProbeSet 11739960_a_at) / RFU SYPL1 (11715823_x_at) / Fold change /veh SYPL1 (11715823_x_at) / RFU IGFBP7 (11715501_s_at) / Fold change /veh IGFBP7 (11715501_s_at) / RFU REEP3 (11722064_at) / Fold change /veh REEP3 (11722064_at) / RFU IGLL1 (11728026_x_at) / Fold change /veh IGLL1 (11728026_x_at): dose or concentration left out as unconfirmed
# Details: ProbeSet 11745428_a_at; LIST D
structure (smiles),measurement,value
Nc1ccc(-c2cccs2)cc1NC(=O)c1ccc2c(c1)cc(C1CC1)n2CCN1CCOCC1 [ACY-1035],"RFU, DFFB",104.10 RFU
